Assays:
MDA-MB-231 cells [1] = assay: Morphology of MDA-MB-231 cells after BHX; assay type: cell-based, human; details: 24 h incubation, more noticeable at high concentrations
[2] = tested on: vimentin protein in MDA-MB-231 cells; assay: Western blotting of vimentin; assay type: cell-based, human; details: western blot
Experimental: (§1) Total cell lysates were obtained by lysing the cells in SDS lysis buffer containing a protease inhibitor (PMSF), and protein concentrations were determined using a BCA protein assay kit. The proteins were separated by SDS-PAGE and transferred to PVDF membranes. The membranes were incubated with primary antibodies against Snail, Vimentin, β-catenin, and E-cadherin (1:1000 dilution) overnight at 4 °C, rinsed with TBST, and incubated with IRDye-conjugated anti-rabbit or anti-mouse IgG secondary antibodies (1:1000, LI-COR Biosciences). A β-actin-specific monoclonal antibody (1:1000 dilution) was used as a loading control. Bands were visualized with an Odyssey LI-COR infrared imaging system (LI-COR, Lincoln, NE).

[3] = tested on: Snail expression in MDA-MB-231 cells; assay: PCR analysis of Snail expression; assay type: cell-based, human; details: 24 h
Experimental: (§2) Total RNA from MDA-MB-231 cells was isolated using TRIzol (Life Technologies, USA). RNA samples were quantified using a NanoDrop 3300 spectrophotometer (Thermo Scientific, NanoDrop Products, Wilmington, DE, USA). Synthesis of cDNA was performed using a RevertAid First Strand cDNA Synthesis kit per manufacturer’s protocols (Thermo Scientific, USA). The reaction mixtures were heated at 95 °C for 10 min, followed by 30 cycles at 94 °C for 30 s, 58 °C for 30 s, 72 °C for 20 s, and a final extension at 72 °C for 5 min. Subsequently, PCR products were electrophoresed in a 1.5% agarose gel and scanned using a gel/fluorescence image analysis system. GAPDH was selected as a loading control to standardize the amount of cDNA from each sample.

[4] = tested on: E-cadherin protein in MDA-MB-231 cells; assay: Western blotting of E-cadherin; assay type: cell-based, human; details: western blot
Experimental: as §1

MDA-MB-231 cells [5] = assay: Detection of apoptosis (annexin V/PI flow cytometry); assay type: cell-based, human; details: 24 h
Experimental: Flow cytometry was performed using PI and FITC-labelled annexin V (BD Pharmingen, CA, USA) staining according to the manufacturer’s protocol. […] After incubation at room temperature in the dark for 15 min, 400 μl of binding buffer (1×) was added. The samples were analysed within 1 h by flow cytometry (FACSCanto II, BD, San Jose, CA).

MGC803 = tested on: MGC803; parameters: method as in PMID 24098916; details: cited from earlier work
[6] = tested on: β-catenin mRNA in MDA-MB-231 cells; assay: PCR analysis of β-catenin mRNA; assay type: cell-based, human; details: 24 h
Experimental: as §2

[7] = tested on: E-cadherin mRNA in MDA-MB-231 cells; assay: PCR analysis of E-cadherin mRNA; assay type: cell-based, human; details: 24 h
Experimental: as §2

[8] = tested on: MDA-MB-231 xenografted tumours; assay: Mouse xenograft model, anti-tumour effect in vivo; parameters: species or system BALB/c nude mice
Experimental: Female BALB/c nude mice (18 ± 2 g) were purchased from Institute of Laboratory Animal Sciences, Peking Union Medical College (Beijing, China). […] The tumour length and width were measured using callipers and the tumour volume was calculated twice weekly. The body weight of mice was determined at least twice weekly during the study period.

[9] = tested on: intracellular ROS in MDA-MB-231 cells; assay: Measurement of intracellular ROS (H2DCFDA); assay type: cell-based, human; details: 24 h, maximum potency at 20 μM
Experimental: The levels of intracellular ROS were monitored using dichlorofluorescein diacetate (H2DCFDA) as previously reported. […] The culture media were replaced with 1 ml of H2DCFDA/RPMI DMEM media and incubated at 37 °C for 30 min, with a final H2DCFDA concentration of 10 μM. The levels of ROS were then detected using flow cytometry (FACSCanto II, BD, San Jose, CA).

MDA-MB-231 cells [10] = assay: Scratch-wound (wound healing) migration assay; assay type: cell-based; details: Homo sapiens, 20 h
Experimental: Cell invasion and migration were measured using Transwell and wound healing assays, respectively. For Transwell assays, 2 × 10^4 cells were suspended in serum-free media and seeded in the top chamber of Matrigel-coated invasion inserts (Corning life science, Corning, NY). BHX was then added to the top chambers. DMEM containing 10% FBS was added to the lower chamber as a chemoattractant. After 24 h incubation, the non-invading cells on the upper surface of the membrane were wiped away, and the invading cells on the lower surface of the membrane were fixed using 95% ethanol and stained with 0.1% crystal violet. Images were captured at ×200 magnification using an inverted phase contrast microscope (BX61, Olympus, Japan). In parallel, cells were treated identically in 24-well plate. These cells were harvested, stained with 0.1% crystal violet, and counted. The number of cells that had invaded was normalized for effects on cell viability. For wound healing assays, cells were seeded at 2 × 10^5 cells/well in 24-well culture plates and allowed to reach confluence. […] Images of the scratches were recorded at ×40 magnification using a phase contrast microscope (EVOS, AMG, USA) at 0 and 20 h. The areas between leading edges were measured using Image J software, after which the rates of wound healing were calculated.

MDA-MB-231 cells [11] = assay: Cell cycle analysis by flow cytometry; assay type: cell-based, human; details: 24 h, vehicle 31.52 ± 2.67%
Experimental: Cell cycle analysis was carried out as previously described. […] They were washed thrice with ice-cold phosphate-buffered saline (PBS) and fixed with 75% ethanol at −20 °C overnight. The cells were then washed, incubated with 5 μl of RNase (0.25 mg/ml) at 37 °C for 30 min, pelleted, resuspended in propidium iodide (PI, 50 μg/ml), and incubated in the dark at room temperature for 15 min. Cell cycle analysis was analysed using a flow cytometer (FACSCanto II, BD, San Jose, CA).

MDA-MB-231 cells [12] = assay: cells; details: Homo sapiens, MDA-MB-231, 48 h, read-out: approximate IC50 of colony forming ability
Experimental: The culture media was then aspirated and fresh cell culture media was added to allow colony formation. The culture media was changed every third day. The colonies were fixed with ice-cold methanol for 5 min and stained with 1.0% crystal violet for 30 min. Colony numbers were counted and representative photos were taken.

A549 = tested on: A549; parameters: method as in PMID 24098916; details: cited from earlier work

In the case of `O=C(NCc1ccc(O)cc1)C1C(c2ccccc2)C(c2ccccc2)=NN1c1ccccc1` (centres unmarked) [BHX], the morphological changes (MDA-MB-231 cells [1]) is reported as “cell shrinkage and fragmentation”, the vimentin protein expression [2] is reported as “down-regulating Snail and vimentin expression in a dose-dependent manner” and the “reduction of Snail expression” value ([3]; 5 μM) is reported as 7.03%. For the same compound, the “reduction of Snail expression” value ([3]; 10 μM) was 15.88%, the “reduction of Snail expression” value ([3]; 20 μM) was 27.14% and the E-cadherin protein level [4] was “up-regulating the protein and mRNA levels of E-cadherin”. For the same compound, the “early apoptotic cells vs vehicle” value (MDA-MB-231 cells [5]) was “increased the percentage of early apoptotic cells”, the cytotoxic effects (MGC803) was “exhibits cytotoxic effects” and the “decrease of β-catenin mRNA levels” value ([6]; 5 μM) was 4.61%. The “decrease of β-catenin mRNA levels” value ([6]; 10 μM) was 25.73%, the “decrease of β-catenin mRNA levels” value ([6]; 20 μM) was 33.19% and the “increase of E-cadherin mRNA levels compared to control” value (“increase of E-cadherin mRNA levels” below) ([7]; 5 μM) was 1.39 fold. For the same compound, the “increase of E-cadherin mRNA levels” value ([7]; 10 μM) was 1.65 fold, the “increase of E-cadherin mRNA levels” value ([7]; 20 μM) was 2.06 fold and the average tumour volume ([8]; 100 mg/kg for 21 days, vehicle 1179 ± 128 mm^3) was 754 ± 96 mm^3. For the same compound, the “tumour size compared to control group” value ([8]; 100, 200 mg/kg, daily intraperitoneal, 21 days, p < 0.01) was “significant decrease in tumour size”, the “body weight of treated mice” value ([8]; 21 days treatment, p > 0.05) was “no significant loss of body weight” and the “bioluminescent intensity of tumours” value ([8]; 21 days, dose not stated, control 8.90 ± 0.74 × 10^7) was 6.13 ± 0.52 × 10^7 p/sec/cm^2/sr. The ROS generation [9] was “significantly increased in a dose-dependent manner”, the inhibition at 5 µM (MDA-MB-231 cells [10]; 5 μM) was 34.4 ± 1.06% and the inhibition at 10 µM (MDA-MB-231 cells [10]; 10 μM) was 71 ± 1.65%. The inhibition at 20 µM (MDA-MB-231 cells [10]; 20 μM) was 90.32 ± 0.68%, the “percentage of cells in the G0/G1 phase” value (MDA-MB-231 cells [11]; 10 μM) was 54.49 ± 1.93% and the “percentage of cells in the G0/G1 phase” value (MDA-MB-231 cells [11]; 20 μM) was 61.50 ± 2.85%. The IC50 (MDA-MB-231 cells [12]) was roughly 20 µM and the cytotoxic effects (A549) was “exhibits cytotoxic effects”.
